According to patent publication US20040116348A1, “Polymer-linker-drug conjugates for targeted drug delivery” (priority 2002, published 2004):

Tests used:
[1] = system: HT-1080 (a human fibrosarcoma line); assay: MTT cytotoxicity, HT-1080; type: cell-based
Description: (§1) Open circles in FIGS. 6A-F represent free doxorubicin and closed circles represent LIG-doxorubicin.
(§2) Cell survival was assayed using an indirect colorimetric […] (MTT assay, e.g., see Alley et al., Cancer Res. 48:589, 1988). The tetrazolium salt MTT is metabolized by NAD-dependent dehydrogenase to form a colored reaction product and the amount of dye formed directly correlates with the number of viable cells. The formula for calculating % survival is given by:
(§3) %survival=(Ti−Tz)/(C−Tz) if Ti≧Tz or
(§4) %survival=(Ti−Tz)/Tz if Ti<Tz
(§5) where Ti=Net MTT reading of test growth in the presence of drugs; Tz=Net MTT reading at time zero with respect to the drug test; and C=Net MTT reading of control growth (see Grever et al., Seminars in Oncology, 19:622, 1992 and Boyd and Paull, Drug Development Research 34:91, 1995).
(§6) The cytotoxicity of methotrexate and various peptidyl-methotrexates were compared in order to assess bulk tolerance. The peptidyl-methotrexates were prepared by linking short peptides of three to four amino acids to methotrexate. […] Methotrexate was covalently coupled to the N-terminal end of the peptides via the γ-carboxyl of its glutamic acid (Nagy et al., Proc. Nat. Acad. Sci. USA 90:6373, 1993). […] Cytotoxicity was assayed as described above in Example 4. […] Example 8 describes the synthesis of certain dextran-oligopeptide-methotrexate conjugates.

[2] = system: BT-20 (a human breast carcinoma line); assay: MTT cytotoxicity, BT-20; type: cell-based
Description: as §1, §2, §3, §4, §5, §6

[3] = system: U-87 (a human glioblastoma cell line); assay: MTT cytotoxicity, U-87; type: cell-based
Description: as §1, §2, §3, §4, §5

[4] = system: PC-3 (a human prostate tumor cell line); assay: MTT cytotoxicity, PC-3; type: cell-based
Description: as §1, §2, §3, §4, §5

[5] = system: KK-47 (a human bladder tumor cell line); assay: MTT cytotoxicity, KK-47; type: cell-based
Description: as §1, §2, §3, §4, §5

[6] = system: MGH-U1 (a human bladder cell line); assay: MTT cytotoxicity, MGH-U1; type: cell-based
Description: as §1, §2, §3, §4, §5

[7] = system: RT-112 (human urinary bladder transitional carcinoma line); assay: MTT cytotoxicity, RT-112; type: cell-based
Description: as §2, §3, §4, §5
The cytotoxicity of methotrexate and various peptidyl-methotrexates were compared in order to assess bulk tolerance. The peptidyl-methotrexates were prepared by linking short peptides of three to four amino acids to methotrexate. The peptides were chosen to represent appropriate cleavage fragments from the MMP-2 sensitive substrate peptide IPVGLIG that was characterized in Examples 1-2. Methotrexate was covalently coupled to the N-terminal end of the peptides via the γ-carboxyl of its glutamic acid (Nagy et al., Proc. Nat. Acad. Sci. USA 90:6373, 1993). […]

human tumor cell lines = assay: MTT cytotoxicity, overall statement over the panel of human tumor cell lines; type: cell-based; settings: three human tumor cell lines
Description: as §2, with “by: […]” for “by:”

HT-1080 tumors = assay: In vivo anti-tumor efficacy in SCID mice bearing HT-1080 tumors; settings: end of study; 50 mg methotrexate/kg i.p. on day 1, 8 and 15
Description: Each group included three mice.
The dosage chosen for these experiments was based on the reported optimum dosage of free methotrexate for treating tumor-bearing mice (Burger et al., Int. J. Cancer 92:718, 2001). Three weekly injections at 50 mg of methotrexate/kg of body weight was half the maximum tolerated dosage. In another set of experiments the dosage was increased to three weekly injections of 100 mg/kg, or to injections of 50 mg/kg twice per week.

[8] = Body weight change as indicator of toxic side effects in SCID mice bearing HT-1080 tumors; settings: 50 mg methotrexate/kg i.p. on day 1, 8 and 15
Description: After 7-10 days, tumors of size 150-300 mm^3 were established on each mouse. […] Weight and tumor size were monitored three times a week. Tumor size was calculated as width^2×length×0.52. […] As a second control, another group of mice were injected with phosphate buffered saline. Each group included three mice.

Row | SMILES | cytotoxicity (% survival, MTT) [1] | cytotoxicity (% survival, MTT) [2] | cytotoxicity (% survival, MTT) [3] | cytotoxicity (% survival, MTT) [4] | cytotoxicity (% survival, MTT) [5] | cytotoxicity (% survival, MTT) [6] | cytotoxicity (% survival, MTT) [7] | cytotoxicity relative to free methotrexate (human tumor cell lines) | tumor growth suppression compared to saline control (HT-1080 tumors) | body weight drop compared to initial weight [8]
1 | CC[C@H](C)[C@H](NC(=O)[C@@H](N)CC(C)C)C(=O)NCC(=O)N[C@H]1C[C@H](O[C@H]2C[C@](O)(C(=O)CO)Cc3c(O)c4c(c(O)c32)C(=O)c2c(OC)cccc2C4=O)O[C@@H](C)[C@H]1O [LIG-doxorubicin] | cytotoxic | cytotoxic | cytotoxic | cytotoxic | cytotoxic | cytotoxic | – | – | – | –
2 | CC(C)[C@H](NC(=O)[C@@H]1CCCN1C(=O)CC[C@H](NC(=O)c1ccc(N(C)Cc2cnc3nc(N)nc(N)c3n2)cc1)C(=O)O)C(=O)NCC(=O)O [methotrexate-PVG] | cytotoxic | cytotoxic | – | – | – | – | cytotoxic | comparable | – | –
3 | CN(Cc1cnc2nc(N)nc(N)c2n1)c1ccc(C(=O)N[C@@H](CCC(=O)O)C(=O)O)cc1 [methotrexate] | – | – | – | – | – | – | – | – | 48% | 13%
